Source: patent US20240279215A1 (Cytokinetics, Incorporated, priority 2022, published 2024)

Each compound was assayed against human NAMPT (Homo sapiens (Human), UniProt P43490) (assay: NMN fluorescence biochemical assay (human recombinant NAMPT enzyme assay)).
Method: Compounds described herein were assayed for their ability to stimulate the synthesis of nicotinamide mononucleotide (NMN) by the enzyme NAMPT. The human recombinant enzyme assay measures the activation of the enzyme activity by compounds using recombinant enzyme and substrates in a buffered cell-free system. The assay conditions closely mimic cellular environments. Dose responses were measured using an assay to detect the formation of nicotinamide mono-nucleotide. All experiments were performed in the 384-well format. Generally, 0.5 μL of DMSO containing varying concentrations of the test compound was mixed with 10 μL of the enzyme reagent solution. Enzyme reactions were initiated with the addition of […] containing the substrates. The final assay conditions were as follows: 6 nM human NAMPT, 2.5 mM ATP, 20 μM PRPP and 150 μM nicotinamide in 50 mM HEPES, pH 7.2, 1 mM DTT, 1 mM CHAPS 50 mM NaCl, 100 mM MgCl2. Following an incubation of 60 min at ambient temperature, 10 μL of 20% acetophenone in DMSO was added, followed by 10 μL of 2 M KOH and 40 μL of formic acid. The plates were read for fluorescence (Excitation/Emission=355 nm/460 nm) using an EnVision plate reader after 40 mins of incubation at ambient temperature.

human NAMPT, sequence (P43490 whole entry): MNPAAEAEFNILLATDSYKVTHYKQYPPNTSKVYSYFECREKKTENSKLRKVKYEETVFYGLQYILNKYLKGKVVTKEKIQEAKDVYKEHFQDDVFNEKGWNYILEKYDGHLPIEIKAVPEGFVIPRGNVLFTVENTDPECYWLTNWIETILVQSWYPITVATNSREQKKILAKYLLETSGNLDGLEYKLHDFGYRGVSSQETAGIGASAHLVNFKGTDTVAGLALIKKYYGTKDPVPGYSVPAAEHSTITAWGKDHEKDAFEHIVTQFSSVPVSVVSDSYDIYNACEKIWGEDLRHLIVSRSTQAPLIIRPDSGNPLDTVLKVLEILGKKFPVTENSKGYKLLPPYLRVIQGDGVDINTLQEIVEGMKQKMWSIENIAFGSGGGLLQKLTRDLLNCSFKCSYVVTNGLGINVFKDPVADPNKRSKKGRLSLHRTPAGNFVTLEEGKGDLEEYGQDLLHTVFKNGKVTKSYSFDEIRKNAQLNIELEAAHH

Row | AC1.4 Human | EC50 | SMILES
1 | 0.104 µM | 3.5 µM | CS(=O)(=O)N1CCC2(CC(c3ccc(NC(=O)OCc4cnco4)cc3F)C2)C1 (single isomer, unassigned) [Compound 359]
2 | 0.07 µM | 2.33 µM | CS(=O)(=O)N1CCC2(CC(c3ccc(NC(=O)OCc4cnco4)cc3F)C2)C1 (single isomer, unassigned) [Compound 360]
3 | 0.08 µM | 10.8 µM | CC(C)C(=O)N1CCC2(CC(c3ccc(NC(=O)OCc4cnco4)cc3F)C2)C1 (single isomer, unassigned) [Compound 361]
4 | 0.05 µM | 4.6 µM | CC(C)C(=O)N1CCC2(CC(c3ccc(NC(=O)OCc4cnco4)cc3F)C2)C1 (single isomer, unassigned) [Compound 362]
5 | 0.03 µM | 4.49 µM | CN(C)C(=O)N1CCC2(CC(c3ccc(NC(=O)OCc4cnco4)cc3F)C2)C1 (single isomer, unassigned) [Compound 363]
6 | 0.07 µM | 3.97 µM | CN(C)C(=O)N1CCC2(CC(c3ccc(NC(=O)OCc4cnco4)cc3F)C2)C1 (single isomer, unassigned) [Compound 364]
7 | 0.09 µM | 5.64 µM | CC(=O)N1CCC2(CC(c3ccc(NC(=O)OCc4cnco4)cc3F)C2)C1 (single isomer, unassigned) [Compound 372]
8 | 0.013 µM | 0.24 µM | CC(=O)N1CCC2(CC(c3ccc(NC(=O)OCc4cnco4)cc3F)C2)C1 (single isomer, unassigned) [Compound 373]
9 | 0.03 µM | 0.44 µM | COc1ccc(COC(=O)Nc2ccc(CN3CCC[C@@H]3c3cccnc3)cc2)cc1 [Compound 1, (4-methoxyphenyl)methyl N-(4-{[(2R)-2-(pyridin-3-yl)pyrrolidin-1-yl]methyl}phenyl)carbamate]
10 | 0.05 µM | 0.96 µM | NC(=O)c1ccc(COC(=O)Nc2ccc(CN3CCC[C@@H]3c3cccnc3)cc2)cc1 [Compound 2, (4-carbamoylphenyl)methyl N-(4-{[(2R)-2-(pyridin-3-yl)pyrrolidin-1-yl]methyl}phenyl)carbamate]
11 | 0.05 µM | 0.31 µM | O=C(Nc1ccc(CN2CCC[C@@H]2c2cccnc2)cc1)OCc1ccncc1 [Compound 3, pyridin-4-ylmethylN-(4-{[(2R)-2-(pyridin-3-yl)pyrrolidin-1-yl]methyl}phenyl)carbamate]
12 | 0.06 µM | 21.8 µM | CN(C)C(=O)N1CCC(c2ccc(NC(=O)OCc3cnco3)cc2)CC1 [Compound 4, oxazol-5-ylmethyl (4-(1-(dimethylcarbamoyl)piperidin-4-yl)phenyl)carbamate]
13 | 0.11 µM | 20.8 µM | CC(C)C(=O)N1CCC(c2ccc(NC(=O)OCc3cnco3)cc2)CC1 [Compound 7, 1,3-oxazol-5-ylmethyl N-{4-[1-(2-methylpropanoyl)piperidin-4-yl]phenyl}carbamate]
14 | 0.15 µM | 16 µM | Cc1ccc(C(=O)NCc2ccc(NC(=O)OCc3cn[nH]c3)cc2)cn1 [Compound 9, (1H-pyrazol-4-yl)methyl (4-((6-methylnicotinamido)methyl)phenyl)carbamate]
15 | 0.16 µM | 11.2 µM | CNS(=O)(=O)N1CCC(Cc2ccc(NC(=O)OCc3cnco3)cc2)CC1 [Compound 10, oxazol-5-ylmethyl (4-((1-(N-methylsulfamoyl)piperidin-4-yl)methyl)phenyl)carbamate]
16 | 0.21 µM | 22.5 µM | COC(=O)N1CCC(Cc2ccc(NC(=O)OCc3cnco3)cc2)CC1 [Compound 11, methyl 4-(4-(((oxazol-5-ylmethoxy)carbonyl)amino)benzyl)piperidine-1-carboxylate]
17 | 0.22 µM | 0.34 µM | Cc1nn(C)c(C(=O)N[C@@H](C)c2ccc(NC(=O)OCc3ccc(Cl)cc3)cc2)c1C [Compound 12, (4-chlorophenyl)methyl N-{4-[(1S)-1-[(2,4,5-trimethylpyrazol-3-yl)formamido]ethyl]phenyl}carbamate]
18 | 0.22 µM | 44.7 µM | O=C(Nc1ccc(CCC2CCN(C(=O)C3COC3)CC2)cc1)OCc1cnco1 [Compound 13, oxazol-5-ylmethyl (4-(2-(1-(oxetane-3-carbonyl)piperidin-4-yl)ethyl)phenyl)carbamate]
19 | 0.23 µM | 10.7 µM | NC(=O)c1ccc(COC(=O)Nc2ccc(Cc3ccncc3)cc2)cc1 [Compound 14, 4-carbamoylbenzyl (4-(pyridin-4-ylmethyl)phenyl)carbamate]
20 | 0.24 µM | 2.16 µM | CC(=O)N1CCC(c2ccc(NC(=O)OCc3ccc(Cl)cc3)cc2)CC1 [Compound 15, (4-chlorophenyl)methyl N-[4-(1-acetylpiperidin-4-yl)phenyl]carbamate]
21 | 0.25 µM | 3.5 µM | CC(=O)N1CC(OCc2ccc(NC(=O)OCc3ccc(Cl)cc3)cc2)C1 [Compound 16, 4-chlorobenzyl (4-(((1-acetylazetidin-3-yl)oxy)methyl)phenyl)carbamate]
22 | 0.25 µM | 0.9 µM | CNS(=O)(=O)N1CCC(Cc2ccc(NC(=O)OCc3ccc(Cl)cc3)cc2)CC1 [Compound 17, 4-chlorobenzyl (4-((1-(N-methylsulfamoyl)piperidin-4-yl)methyl)phenyl)carbamate]
23 | 0.25 µM | 16.2 µM | CS(=O)(=O)N1CCC(Cc2ccc(NC(=O)OCc3cnco3)cc2)CC1 [Compound 18, oxazol-5-ylmethyl (4-((1-(methylsulfonyl)piperidin-4-yl)methyl)phenyl)carbamate]
24 | 0.26 µM | 0.59 µM | Cc1nn(C)c(C(=O)NCc2ccc(NC(=O)OCc3ccc(Cl)cc3)cc2)c1C [Compound 19, (4-chlorophenyl)methyl N-(4-{[(2,4,5-trimethylpyrazol-3-yl)formamido]methyl}phenyl)carbamate]
25 | 0.29 µM | 2.57 µM | C[C@H](NC(=O)c1ccnn1C1CCOCC1)c1ccc(NC(=O)OCc2ccc(Cl)cc2)cc1 [Compound 20, (4-chlorophenyl)methyl N-{4-[(1S)-1-{[2-(oxan-4-yl)pyrazol-3-yl]formamido}ethyl]phenyl}carbamate]
26 | 0.32 µM | 10.1 µM | C[C@H](NC(=O)C1CC2(C1)CC(F)(F)C2)c1ccc(NC(=O)OCc2cnco2)cc1 [Compound 22, 1,3-oxazol-5-ylmethyl N-{4-[(1S)-1-({6,6-difluorospiro[3.3]heptan-2-yl}formamido)ethyl]phenyl}carbamate]
27 | 0.34 µM | 1.88 µM | O=C(Nc1ccc(CN2CCN(c3cnccn3)CC2)cc1)OCc1ccc(Cl)cc1 [Compound 24, (4-chlorophenyl)methyl N-(4-{[4-(pyrazin-2-yl)piperazin-1-yl]methyl}phenyl)carbamate]
28 | 0.35 µM | 7.8 µM | Cc1ccc(C(=O)NCc2ccc(NC(=O)OCc3cnco3)cc2)cn1 [Compound 25, oxazol-5-ylmethyl (4-((6-methylnicotinamido)methyl)phenyl)carbamate]

Row | SMILES | AC1.4 Human | EC50
29 | O=C(Nc1ccc(CN2CCC[C@@H]2c2cccnc2)cc1)OCc1cnco1 [Compound 6, oxazol-5-ylmethyl (R)-(4-((2-(pyridin-3-yl)pyrrolidin-1-yl)methyl)phenyl)carbamate] | 0.07 µM | 0.55 µM
